{"source": "the supplement of paper PMC10307832", "test_in_all_cases": "relative viability (nuclei count vs DMSO), 5 days (fraction); higher = more cells survive", "key": {"NCI-H1915": {"tested_on": "NCI-H1915", "procedure,_shortened": "(§1)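 Relative viability divides the nuclei count in treated wells by that in vehicle wells. Lung cancer cell lines were seeded in 1536-well plates, dosed by pin tool the next day, and fixed and stained after 5 days in one step with final 0.05% Triton X-100, 1% formaldehyde and 1 ug/ml Hoechst. Dosing was a single drug or a fixed anchor-drug dose plus five library-drug doses (not always all listed) in √10 steps, and values are medians of duplicate plates imaged at 4×.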"}, "NCI-H2085": {"tested_on": "NCI-H2085", "procedure,_shortened": "as §1"}, "NCI-H2170": {"tested_on": "NCI-H2170", "procedure,_shortened": "as §1"}, "NCI-H2347": {"tested_on": "NCI-H2347", "procedure,_shortened": "as §1"}, "NCI-H322M": {"tested_on": "NCI-H322M", "procedure,_shortened": "as §1"}, "NCI-H441": {"tested_on": "NCI-H441", "procedure,_shortened": "as §1"}, "NCI-H522": {"tested_on": "NCI-H522", "procedure,_shortened": "as §1"}, "NCI-H647": {"tested_on": "NCI-H647", "procedure,_shortened": "as §1"}, "NCI-H650": {"tested_on": "NCI-H650", "procedure,_shortened": "as §1"}, "NCI-H661": {"tested_on": "NCI-H661", "procedure,_shortened": "as §1"}, "NCI-H838": {"tested_on": "NCI-H838", "procedure,_shortened": "as §1"}, "SK-MES-1": {"tested_on": "SK-MES-1", "procedure,_shortened": "as §1"}, "UMC-11": {"tested_on": "UMC-11", "procedure,_shortened": "as §1"}}, "data": [{"molecule": "Cc1cn(-c2cc(NC(=O)c3ccc(C)c(Nc4nccc(-c5cccnc5)n4)c3)cc(C(F)(F)F)c2)cn1", "note": "[Nilotinib] + Nc1nc2[nH]cc(CCc3ccc(C(=O)N[C@@H](CCC(=O)O)C(=O)O)cc3)c2c(=O)[nH]1 [Pemetrexed] (partner 0.2 µM)", "values": [{"measurement": "relative viability", "setting": "NCI-H1915; first compound 0.003162 µM", "value": 0.427}, {"measurement": "relative viability", "setting": "NCI-H1915; first compound 0.01 µM", "value": 0.532}, {"measurement": "relative viability", "setting": "NCI-H1915; first compound 0.03162 µM", "value": 0.449}, {"measurement": "relative viability", "setting": "NCI-H1915; first compound 0.1 µM", "value": 0.438}, {"measurement": "relative viability", "setting": "NCI-H2085; first compound 0.001 µM", "value": 0.981}, {"measurement": "relative viability", "setting": "NCI-H2085; first compound 0.003162 µM", "value": 0.907}, {"measurement": "relative viability", "setting": "NCI-H2085; first compound 0.01 µM", "value": 1}, {"measurement": "relative viability", "setting": "NCI-H2085; first compound 0.03162 µM", "value": 0.932}, {"measurement": "relative viability", "setting": "NCI-H2085; first compound 0.1 µM", "value": 0.562}, {"measurement": "relative viability", "setting": "NCI-H2170; first compound 0.001 µM", "value": 0.265}, {"measurement": "relative viability", "setting": "NCI-H2170; first compound 0.003162 µM", "value": 0.261}, {"measurement": "relative viability", "setting": "NCI-H2170; first compound 0.03162 µM", "value": 0.252}, {"measurement": "relative viability", "setting": "NCI-H2170; first compound 0.1 µM", "value": 0.315}, {"measurement": "relative viability", "setting": "NCI-H2347; first compound 0.001 µM", "value": 0.401}, {"measurement": "relative viability", "setting": "NCI-H2347; first compound 0.003162 µM", "value": 0.384}, {"measurement": "relative viability", "setting": "NCI-H2347; first compound 0.01 µM", "value": 0.435}, {"measurement": "relative viability", "setting": "NCI-H2347; first compound 0.03162 µM", "value": 0.517}, {"measurement": "relative viability", "setting": "NCI-H2347; first compound 0.1 µM", "value": 0.418}, {"measurement": "relative viability", "setting": "NCI-H322M; first compound 0.001 µM", "value": 0.757}, {"measurement": "relative viability", "setting": "NCI-H322M; first compound 0.003162 µM", "value": 0.774}, {"measurement": "relative viability", "setting": "NCI-H322M; first compound 0.01 µM", "value": 0.576}, {"measurement": "relative viability", "setting": "NCI-H322M; first compound 0.03162 µM", "value": 0.593}, {"measurement": "relative viability", "setting": "NCI-H322M; first compound 0.1 µM", "value": 0.645}, {"measurement": "relative viability", "setting": "NCI-H441; first compound 0.001 µM", "value": 0.261}, {"measurement": "relative viability", "setting": "NCI-H441; first compound 0.003162 µM", "value": 0.26}, {"measurement": "relative viability", "setting": "NCI-H441; first compound 0.01 µM", "value": 0.225}, {"measurement": "relative viability", "setting": "NCI-H441; first compound 0.03162 µM", "value": 0.229}, {"measurement": "relative viability", "setting": "NCI-H441; first compound 0.1 µM", "value": 0.186}, {"measurement": "relative viability", "setting": "NCI-H522; first compound 0.01 µM", "value": 1.21}, {"measurement": "relative viability", "setting": "NCI-H522; first compound 0.03162 µM", "value": 0.949}, {"measurement": "relative viability", "setting": "NCI-H522; first compound 0.1 µM", "value": 0.792}, {"measurement": "relative viability", "setting": "NCI-H647; first compound 0.001 µM", "value": 0.158}, {"measurement": "relative viability", "setting": "NCI-H647; first compound 0.003162 µM", "value": 0.158}, {"measurement": "relative viability", "setting": "NCI-H647; first compound 0.01 µM", "value": 0.118}, {"measurement": "relative viability", "setting": "NCI-H647; first compound 0.03162 µM", "value": 0.138}, {"measurement": "relative viability", "setting": "NCI-H647; first compound 0.1 µM", "value": 0.118}, {"measurement": "relative viability", "setting": "NCI-H650; first compound 0.001 µM", "value": 0.887}, {"measurement": "relative viability", "setting": "NCI-H650; first compound 0.003162 µM", "value": 0.86}, {"measurement": "relative viability", "setting": "NCI-H650; first compound 0.01 µM", "value": 1.12}, {"measurement": "relative viability", "setting": "NCI-H650; first compound 0.03162 µM", "value": 0.914}, {"measurement": "relative viability", "setting": "NCI-H650; first compound 0.1 µM", "value": 0.746}, {"measurement": "relative viability", "setting": "NCI-H661; first compound 0.001 µM", "value": 0.966}, {"measurement": "relative viability", "setting": "NCI-H661; first compound 0.003162 µM", "value": 1.03}, {"measurement": "relative viability", "setting": "NCI-H661; first compound 0.01 µM", "value": 1.07}, {"measurement": "relative viability", "setting": "NCI-H661; first compound 0.03162 µM", "value": 0.888}, {"measurement": "relative viability", "setting": "NCI-H661; first compound 0.1 µM", "value": 0.893}, {"measurement": "relative viability", "setting": "NCI-H838; first compound 0.001 µM", "value": 0.246}, {"measurement": "relative viability", "setting": "NCI-H838; first compound 0.003162 µM", "value": 0.258}, {"measurement": "relative viability", "setting": "NCI-H838; first compound 0.01 µM", "value": 0.261}, {"measurement": "relative viability", "setting": "NCI-H838; first compound 0.03162 µM", "value": 0.252}, {"measurement": "relative viability", "setting": "NCI-H838; first compound 0.1 µM", "value": 0.228}, {"measurement": "relative viability", "setting": "SK-MES-1; first compound 0.001 µM", "value": 0.958}, {"measurement": "relative viability", "setting": "SK-MES-1; first compound 0.003162 µM", "value": 0.841}, {"measurement": "relative viability", "setting": "SK-MES-1; first compound 0.01 µM", "value": 1.05}, {"measurement": "relative viability", "setting": "SK-MES-1; first compound 0.03162 µM", "value": 0.868}, {"measurement": "relative viability", "setting": "SK-MES-1; first compound 0.1 µM", "value": 0.503}, {"measurement": "relative viability", "setting": "UMC-11; first compound 0.001 µM", "value": 0.789}, {"measurement": "relative viability", "setting": "UMC-11; first compound 0.003162 µM", "value": 0.914}, {"measurement": "relative viability", "setting": "UMC-11; first compound 0.01 µM", "value": 0.857}, {"measurement": "relative viability", "setting": "UMC-11; first compound 0.03162 µM", "value": 0.495}, {"measurement": "relative viability", "setting": "UMC-11; first compound 0.1 µM", "value": 0.631}]}]}
